Our source for the T/C values is PubChem BioAssay AID328 (DTP/NCI, 2004).

The structures appear in SMILES notation. Where “and” joins values, the source holds several entries; their conditions need not be identical. Equal entries are not always repeated. Inconclusive results and toxic doses are left out.

In the assay the test system is BDF1 mice, P388 leukemia ip, median survival T/C. The experiment in a line: NCI In Vivo Anticancer Drug Screen. Data for tumor model P388 Leukemia (intraperitoneal) in B6D2F1 (BDF1) mice. The following applies: endpoint: median survival time, higher = longer survival. Put shortly:
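Each value expresses how treatment altered survival: treated-mouse outcome over vehicle-mouse outcome, both groups bearing the transplanted tumour.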

[1] abbreviates: dose: 6.25 mg/kg/injection, schedule: Q01DX009 (ip), vehicle: water.
Where [2] appears, read: dose: 12.5 mg/kg/injection, schedule: Q01DX009 (ip), vehicle: water.
The mark [3] stands for this setting: dose: 25.0 mg/kg/injection, schedule: Q01DX009 (ip), vehicle: water.
The mark [4] stands for this setting: dose: 50.0 mg/kg/injection, schedule: Q01DX009 (ip), vehicle: saline.
Setting [5] is: dose: 50.0 mg/kg/injection, schedule: Q04DX003 (ip), vehicle: water.
[6] abbreviates: dose: 100.0 mg/kg/injection, schedule: Q01DX009 (ip), vehicle: Klucel (hydroxypropylcellulose) (HPC).
Where [7] appears, read: dose: 100.0 mg/kg/injection, schedule: Q01DX009 (ip), vehicle: saline.
The mark [8] stands for this setting: dose: 100.0 mg/kg/injection, schedule: Q04DX003 (ip), vehicle: saline.
The mark [9] stands for this setting: dose: 200.0 mg/kg/injection, schedule: Q01DX009 (ip), vehicle: saline.
[10] abbreviates: dose: 200.0 mg/kg/injection, schedule: Q04DX003 (ip), vehicle: saline.
Where [11] appears, read: dose: 100.0 mg/kg/injection, schedule: Q04DX002 (ip), vehicle: saline with Tween-80.
Where [12] appears, read: dose: 200.0 mg/kg/injection, schedule: Q04DX002 (ip), vehicle: saline with Tween-80.
[13] abbreviates: dose: 400.0 mg/kg/injection, schedule: Q04DX002 (ip), vehicle: saline with Tween-80.
Where [14] appears, read: dose: 100.0 mg/kg/injection, schedule: Q01DX009 (ip), vehicle: saline with Tween-80.
Setting [15] is: dose: 200.0 mg/kg/injection, schedule: Q01DX009 (ip), vehicle: saline with Tween-80.
Where [16] appears, read: dose: 400.0 mg/kg/injection, schedule: Q01DX009 (ip), vehicle: saline with Tween-80.
[17] abbreviates: dose: 100.0 mg/kg/injection, schedule: Q04DX003 (ip), vehicle: Klucel (hydroxypropylcellulose) (HPC).
Where [18] appears, read: dose: 200.0 mg/kg/injection, schedule: Q04DX003 (ip), vehicle: Klucel (hydroxypropylcellulose) (HPC).
The mark [19] stands for this setting: dose: 400.0 mg/kg/injection, schedule: Q04DX003 (ip), vehicle: Klucel (hydroxypropylcellulose) (HPC).

`COc1cc2c[n+](C)c3c4cc(OC)c(OC)cc4ccc3c2cc1OC`: the T/C by setting is: (dose: 3.12 mg/kg/injection, schedule: Q01DX009 (ip), vehicle: water) 98 % of control; under setting [1], 112 % of control; under setting [2], 118 % of control; (dose: 25.0 mg/kg/injection, schedule: Q01DX009 (ip), vehicle: other) 153 % of control; under setting [3], 120 % of control; (dose: 34.0 mg/kg/injection, schedule: Q01DX009 (ip), vehicle: saline) 159 % of control. Also, the T/C by setting is: (dose: 50.0 mg/kg/injection, schedule: Q01DX009 (ip), vehicle: other) 174 % of control; under setting [4], 188 % of control; (dose: 50.0 mg/kg/injection, schedule: Q01DX009 (ip), vehicle: water) 100 % of control; under setting [5], 103 % of control; (dose: 52.0 mg/kg/injection, schedule: Q01DX009 (ip), vehicle: saline) 150 % of control; (dose: 80.0 mg/kg/injection, schedule: Q01DX009 (ip), vehicle: saline) 165 % of control and 172 % of control. Further, the T/C reads like this: under setting [6], 151 % of control; (dose: 100.0 mg/kg/injection, schedule: Q01DX009 (ip), vehicle: other) 172 % of control; under setting [7], 200 % of control; (dose: 100.0 mg/kg/injection, schedule: Q01DX009 (ip), vehicle: water) 106 % of control; under setting [8], 113 % of control; (dose: 100.0 mg/kg/injection, schedule: Q04DX003 (ip), vehicle: water) 120 % of control. Further, the T/C (dose: 120.0 mg/kg/injection, schedule: Q01DX009 (ip), vehicle: saline) is 155 % of control and 168 % of control; the T/C (dose: 180.0 mg/kg/injection, schedule: Q01DX009 (ip), vehicle: saline) is 159 % of control; the T/C under setting [9] is 183 % of control; the T/C under setting [10] is 95 % of control; the T/C (dose: 240.0 mg/kg/injection, schedule: Q01DX009 (ip), vehicle: saline) is 90 % of control; the T/C (dose: 240.0 mg/kg/injection, schedule: Q04DX003 (ip), vehicle: saline) is 150 % of control. Further, the T/C is 92 % of control (dose: 400.0 mg/kg/injection, schedule: Q04DX003 (ip), vehicle: water) and 100 % of control (dose: 600.0 mg/kg/injection, schedule: Q04DX003 (ip), vehicle: saline).

Regarding `CCCc1c(N)c2ccccc2c2ccccc12`, the T/C runs as follows: under setting [11], 86 % of control; under setting [12], 96 % of control; under setting [13], 102 % of control.

As to `C[n+]1c(-c2cc(N)cc(C(F)(F)F)c2)c2cc(N)ccc2c2ccc(N)cc21`, the T/C runs as follows: under setting [1], 150 % of control; under setting [2], 181 % of control; under setting [3], 95 % of control.

In the case of `O=C(Nc1ccc(C2=NCCN2)cc1)Nc1cccc(NC(=O)Nc2ccc(C3=NCCN3)cc2)c1`, the T/C by setting is: (dose: 60.0 mg/kg/injection, schedule: Q01DX010 (ip), vehicle: saline) 185 % of control and 190 % of control; (dose: 120.0 mg/kg/injection, schedule: Q01DX010 (ip), vehicle: saline) 185 % of control; (dose: 240.0 mg/kg/injection, schedule: Q01DX010 (ip), vehicle: saline) 245 % of control and 220 % of control; (dose: 480.0 mg/kg/injection, schedule: Q01DX010 (ip), vehicle: saline) 120 % of control.

In the case of `CC(=O)/C=C/c1ccccc1`, the T/C under setting [14] was 91 % of control and 109 % of control; the T/C under setting [15] was 108 % of control and 118 % of control; the T/C under setting [16] is 117 % of control.

For `C#CC(C)(C)NC(=O)NC12CC3CC(CC(C3)C1)C2`, the T/C runs as follows: (dose: 200.0 mg/kg/injection, schedule: Q01DX001 (ip), vehicle: saline with Tween-80) 88 % of control; (dose: 400.0 mg/kg/injection, schedule: Q01DX001 (ip), vehicle: saline with Tween-80) 95 % of control.

As for `C=CCOC(=O)C1c2ccccc2Cc2ccccc21`, the T/C runs as follows: under setting [14], 110 % of control; (dose: 100.0 mg/kg/injection, schedule: Q04DX003 (ip), vehicle: saline with Tween-80) 100 % of control; under setting [15], 115 % of control; (dose: 200.0 mg/kg/injection, schedule: Q04DX003 (ip), vehicle: saline with Tween-80) 100 % of control; under setting [16], 110 % of control; (dose: 400.0 mg/kg/injection, schedule: Q04DX003 (ip), vehicle: saline with Tween-80) 109 % of control.

As for `O=C1C=C(Nc2ccccc2)CCC1`, the T/C runs as follows: under setting [4], 99 % of control; under setting [7], 100 % of control; under setting [9], 103 % of control.

For `CCOC(=O)CCOCOCCC(=O)OCC`, the T/C runs as follows: under setting [8], 100 % of control; under setting [10], 95 % of control; (dose: 400.0 mg/kg/injection, schedule: Q04DX003 (ip), vehicle: saline) 95 % of control.

`O=C1C2C(C(=O)N1c1ccc(OCc3ccccc3)cc1)C1c3ccccc3C2C2CCCCN21` (stereo unspecified): the T/C reads like this: (dose: 3.13 mg/kg/injection, schedule: Q04DX003 (ip), vehicle: water) 93 % of control; (dose: 6.25 mg/kg/injection, schedule: Q04DX003 (ip), vehicle: water) 101 % of control; (dose: 12.5 mg/kg/injection, schedule: Q04DX003 (ip), vehicle: water) 97 % of control; (dose: 25.0 mg/kg/injection, schedule: Q04DX003 (ip), vehicle: water) 101 % of control; under setting [5], 99 % of control.

For `C=CC(N)C(=O)O` (stereo unspecified), the T/C is 117 % of control under setting [11], 108 % of control under setting [12] and 100 % of control under setting [13].

`Cc1ccc(N=NNc2ccc(C)cc2)cc1`: the T/C by setting is: (dose: 100.0 mg/kg/injection, schedule: Q01DX001 (ip), vehicle: Klucel (hydroxypropylcellulose) (HPC)) 104 % of control; (dose: 200.0 mg/kg/injection, schedule: Q01DX001 (ip), vehicle: Klucel (hydroxypropylcellulose) (HPC)) 104 % of control; (dose: 400.0 mg/kg/injection, schedule: Q01DX001 (ip), vehicle: Klucel (hydroxypropylcellulose) (HPC)) 112 % of control.

Take `COc1cc(-c2ccc(N=Nc3c(O)c(C(=O)Nc4ccccc4OC)cc4ccccc34)c(OC)c2)ccc1N=Nc1c(O)c(C(=O)Nc2ccccc2OC)cc2ccccc12`: the T/C is, setting by setting: (dose: 100.0 mg/kg/injection, schedule: Q01DX005 (ip), vehicle: saline with Tween-80) 97 % of control; (dose: 200.0 mg/kg/injection, schedule: Q01DX005 (ip), vehicle: saline with Tween-80) 92 % of control.

Consider `COc1cc2ccc3c(c2cc1OC)CN(Cc1ccccc1)CC3`, for which the T/C is 100 % of control under setting [17], 109 % of control under setting [18] and 100 % of control under setting [19].

With `O=C(O)C1CC=CCCC1` (stereo unspecified), the T/C under setting [6] was 95 % of control; the T/C under setting [17] is 91 % of control; the T/C (dose: 200.0 mg/kg/injection, schedule: Q01DX009 (ip), vehicle: Klucel (hydroxypropylcellulose) (HPC)) is 104 % of control; the T/C under setting [18] is 95 % of control; the T/C (dose: 400.0 mg/kg/injection, schedule: Q01DX009 (ip), vehicle: Klucel (hydroxypropylcellulose) (HPC)) is 104 % of control; the T/C under setting [19] is 91 % of control.

As for `CCOC(=O)C1OC1(C)c1ccccc1` (stereo unspecified), the T/C by setting is: (dose: 75.0 mg/kg/injection, schedule: Q01DX009 (ip), vehicle: Klucel (hydroxypropylcellulose) (HPC)) 95 % of control; under setting [17], 100 % of control and 103 % of control; (dose: 150.0 mg/kg/injection, schedule: Q01DX009 (ip), vehicle: Klucel (hydroxypropylcellulose) (HPC)) 90 % of control; under setting [18], 100 % of control and 111 % of control; (dose: 300.0 mg/kg/injection, schedule: Q01DX009 (ip), vehicle: Klucel (hydroxypropylcellulose) (HPC)) 113 % of control; under setting [19], 92 % of control and 104 % of control.
